Experimental data as given in patent publication US8192962B2, “Processes for detecting toxic substances” (Daikin Industries, Ltd., priority 2001, dated 2012).

Test system: Metabolism protein genes
Test: DNA chip mRNA expression in yeast, metabolism protein genes (Table 7)
Assay type: cell-based, Saccharomyces cerevisiae S288C
Procedure: Yeast (Saccharomyces cerevisiae S288C (α SUC2mal mel gap2 CUP1)) were incubated at 25° C. on YPD medium (yeast extract 1%, polypepton 2%, glucose 2%). One of toxic chemical substances was added to the cells at logarithmic growth phase, and the cells were further incubated for two hours. Cells were cultured without any chemical substance in the same condition, and were used as control. Concentrations of the chemical substances were defined to inhibit the growth of the yeast but not lead to death.
After completion of the incubation, the culture was centrifuged to collect the cells. To the cells, sodium acetate buffer (50 mM sodium acetate, 10 mM EDTA, 1% SDS) was added, and the mixture was shaken at 65° C. for five minutes, followed by returning to room temperature, and obtaining the supernatant, of which the procedures were repeated two times. To the supernatant, ½ amount of a solution of phenol/chloroform was added, and the mixture was centrifuged to give a supernatant, which was added with an equal amount of chloroform, and the mixture was centrifuged to give a supernatant. To the supernatant, an equal amount of isopropanol containing 0.3 M sodium acetate was added, and the mixture was allowed to stand at room temperature for 30 minutes, after which the mixture was centrifuged to give a sediment of the whole RNAs. Seventy % ethanol was added to the sediment, and the mixture was again centrifuged to give a sediment, which was then dried and dissolved in water. mRNA was isolated from the whole RNAs as followings. In view of the fact that a poly A chain is attached to the 3′ terminus of mRNA, a polynucleotide having a poly T structure which was immobilized on the surface of latex beads was used to trap the mRNA, and then the mRNA was washed and eluted with spine column (Oligotex-dT30<Super>mRNA Purification Kit, Takara). Reverse transcription of the mRNA was conducted with a reverse transcriptase (Super Script II Reverse Transcriptase; catalogue No. 18064-014, GibcoBRL) using fluorescence-labeled nucleotides to give cDNAs that were introduced with Cy3-dUTP or Cy5-dUTP during the reverse transcription.
The labeled cDNAs were dissolved in TE buffer (10mM Tris-HCl/1 mM EDTA, pH8.0), and the solution was dropped on the DNA chip containing the whole genes of yeast (DNA Chip Research Inc. Japan) so that the cDNAs were hybridized on the DNA chip at 65° C. for over 12 hours. The fluoresces intensity of the DNA chip was read with a scanner, and the ratio relative to the fluorescence intensity resulting from the absence of chemical substance was estimated as the following, which is shown in Tables 1 to 9: […]

CCCCCCCCCCCCc1ccc(S(=O)(=O)[O-])cc1.[Na+] [(17), sodium dodecylbenzosulfonate]
0.8: level of expressed mRNA in the presence/in the absence of chemical substance (yeast gene YBR011C) | level of expressed mRNA in the presence/in the absence of chemical substance (yeast gene YBR020W) | The level of expressed mRNA in the presence of chemical substance/The level of expressed mRNA in the absence of chemical substance (yeast gene YBR222C) | The level of expressed mRNA in the presence of chemical substance/The level of expressed mRNA in the absence of chemical substance (yeast gene YDR380W) | level of expressed mRNA in the presence/in the absence of chemical substance (yeast gene YFL011W) | level of expressed mRNA in the presence/in the absence of chemical substance (yeast gene YGL115W) | level of expressed mRNA in the presence/in the absence of chemical substance (yeast gene YGR096W) | level of expressed mRNA in the presence/in the absence of chemical substance (yeast gene YGR191W) | The level of expressed mRNA in the presence of chemical substance/The level of expressed mRNA in the absence of chemical substance (yeast gene YHR137W) | level of expressed mRNA in the presence/in the absence of chemical substance (yeast gene YIL006W)
1.7: The level of expressed mRNA in the presence of chemical substance/The level of expressed mRNA in the absence of chemical substance (yeast gene YCR098C) | The level of expressed mRNA in the presence of chemical substance/The level of expressed mRNA in the absence of chemical substance (yeast gene YER026C)
1.3: level of expressed mRNA in the presence/in the absence of chemical substance (yeast gene YDR123C) | level of expressed mRNA in the presence/in the absence of chemical substance (yeast gene YDR345C) | The level of expressed mRNA in the presence of chemical substance/The level of expressed mRNA in the absence of chemical substance (yeast gene YJR148W)
1.1: level of expressed mRNA in the presence/in the absence of chemical substance (yeast gene YBR003W) | The level of expressed mRNA in the presence of chemical substance/The level of expressed mRNA in the absence of chemical substance (yeast gene YCL009C) | level of expressed mRNA in the presence/in the absence of chemical substance (yeast gene YDR050C) | level of expressed mRNA in the presence/in the absence of chemical substance (yeast gene YDR400W) | level of expressed mRNA in the presence/in the absence of chemical substance (yeast gene YDR408C) | The level of expressed mRNA in the presence of chemical substance/The level of expressed mRNA in the absence of chemical substance (yeast gene YDR516C) | The level of expressed mRNA in the presence of chemical substance/The level of expressed mRNA in the absence of chemical substance (yeast gene YER069W) | level of expressed mRNA in the presence/in the absence of chemical substance (yeast gene YER081W) | The level of expressed mRNA in the presence of chemical substance/The level of expressed mRNA in the absence of chemical substance (yeast gene YER178W) | The level of expressed mRNA in the presence of chemical substance/The level of expressed mRNA in the absence of chemical substance (yeast gene YGL209W) | The level of expressed mRNA in the presence of chemical substance/The level of expressed mRNA in the absence of chemical substance (yeast gene YGL248W) | The level of expressed mRNA in the presence of chemical substance/The level of expressed mRNA in the absence of chemical substance (yeast gene YGR194C) | The level of expressed mRNA in the presence of chemical substance/The level of expressed mRNA in the absence of chemical substance (yeast gene YGR256W) | The level of expressed mRNA in the presence of chemical substance/The level of expressed mRNA in the absence of chemical substance (yeast gene YGR282C) | The level of expressed mRNA in the presence of chemical substance/The level of expressed mRNA in the absence of chemical substance (yeast gene YHR111W) | level of expressed mRNA in the presence/in the absence of chemical substance (yeast gene YHR123W) | The level of expressed mRNA in the presence of chemical substance/The level of expressed mRNA in the absence of chemical substance (yeast gene YIL045W) | The level of expressed mRNA in the presence of chemical substance/The level of expressed mRNA in the absence of chemical substance (yeast gene YIL155C) | level of expressed mRNA in the presence/in the absence of chemical substance (yeast gene YJL121C)
1.2: The level of expressed mRNA in the presence of chemical substance/The level of expressed mRNA in the absence of chemical substance (yeast gene YCR048W) | The level of expressed mRNA in the presence of chemical substance/The level of expressed mRNA in the absence of chemical substance (yeast gene YDR019C) | level of expressed mRNA in the presence/in the absence of chemical substance (yeast gene YDR178W) | level of expressed mRNA in the presence/in the absence of chemical substance (yeast gene YDR277C) | level of expressed mRNA in the presence/in the absence of chemical substance (yeast gene YDR483W) | The level of expressed mRNA in the presence of chemical substance/The level of expressed mRNA in the absence of chemical substance (yeast gene YER053C) | level of expressed mRNA in the presence/in the absence of chemical substance (yeast gene YER120W) | The level of expressed mRNA in the presence of chemical substance/The level of expressed mRNA in the absence of chemical substance (yeast gene YFL031W) | level of expressed mRNA in the presence/in the absence of chemical substance (yeast gene YGR288W) | The level of expressed mRNA in the presence of chemical substance/The level of expressed mRNA in the absence of chemical substance (yeast gene YIL107C) | The level of expressed mRNA in the presence of chemical substance/The level of expressed mRNA in the absence of chemical substance (yeast gene YIL154C) | The level of expressed mRNA in the presence of chemical substance/The level of expressed mRNA in the absence of chemical substance (yeast gene YJL031C) | The level of expressed mRNA in the presence of chemical substance/The level of expressed mRNA in the absence of chemical substance (yeast gene YJL099W) | level of expressed mRNA in the presence/in the absence of chemical substance (yeast gene YJL216C)
0.3: The level of expressed mRNA in the presence of chemical substance/The level of expressed mRNA in the absence of chemical substance (yeast gene YCL064C)
1.9: level of expressed mRNA in the presence/in the absence of chemical substance (yeast gene YCR010C)
3.9: level of expressed mRNA in the presence/in the absence of chemical substance (yeast gene YGL205W)
0.7: The level of expressed mRNA in the presence of chemical substance/The level of expressed mRNA in the absence of chemical substance (yeast gene YBR023C) | level of expressed mRNA in the presence/in the absence of chemical substance (yeast gene YEL063C) | The level of expressed mRNA in the presence of chemical substance/The level of expressed mRNA in the absence of chemical substance (yeast gene YGR055W) | level of expressed mRNA in the presence/in the absence of chemical substance (yeast gene YJR143C)
1.0: The level of expressed mRNA in the presence of chemical substance/The level of expressed mRNA in the absence of chemical substance (yeast gene YAL038W) | The level of expressed mRNA in the presence of chemical substance/The level of expressed mRNA in the absence of chemical substance (yeast gene YER096W) | The level of expressed mRNA in the presence of chemical substance/The level of expressed mRNA in the absence of chemical substance (yeast gene YFL030W) | The level of expressed mRNA in the presence of chemical substance/The level of expressed mRNA in the absence of chemical substance (yeast gene YFL056C) | level of expressed mRNA in the presence/in the absence of chemical substance (yeast gene YGR204W) | level of expressed mRNA in the presence/in the absence of chemical substance (yeast gene YHR025W) | The level of expressed mRNA in the presence of chemical substance/The level of expressed mRNA in the absence of chemical substance (yeast gene YHR174W) | The level of expressed mRNA in the presence of chemical substance/The level of expressed mRNA in the absence of chemical substance (yeast gene YIR034C) | level of expressed mRNA in the presence/in the absence of chemical substance (yeast gene YJR077C)
1.5: level of expressed mRNA in the presence/in the absence of chemical substance (yeast gene YDR284C) | The level of expressed mRNA in the presence of chemical substance/The level of expressed mRNA in the absence of chemical substance (yeast gene YFL014W) | The level of expressed mRNA in the presence of chemical substance/The level of expressed mRNA in the absence of chemical substance (yeast gene YFR047C) | The level of expressed mRNA in the presence of chemical substance/The level of expressed mRNA in the absence of chemical substance (yeast gene YIR036C)
0.6: The level of expressed mRNA in the presence of chemical substance/The level of expressed mRNA in the absence of chemical substance (yeast gene YBR029C)
2.6: The level of expressed mRNA in the presence of chemical substance/The level of expressed mRNA in the absence of chemical substance (yeast gene YBR256C)
0.9: The level of expressed mRNA in the presence of chemical substance/The level of expressed mRNA in the absence of chemical substance (yeast gene YAL012W) | level of expressed mRNA in the presence/in the absence of chemical substance (yeast gene YCR034W) | The level of expressed mRNA in the presence of chemical substance/The level of expressed mRNA in the absence of chemical substance (yeast gene YDR502C) | level of expressed mRNA in the presence/in the absence of chemical substance (yeast gene YGL012W) | The level of expressed mRNA in the presence of chemical substance/The level of expressed mRNA in the absence of chemical substance (yeast gene YGL022W) | The level of expressed mRNA in the presence of chemical substance/The level of expressed mRNA in the absence of chemical substance (yeast gene YGL126W) | The level of expressed mRNA in the presence of chemical substance/The level of expressed mRNA in the absence of chemical substance (yeast gene YJR137C)
1.6: The level of expressed mRNA in the presence of chemical substance/The level of expressed mRNA in the absence of chemical substance (yeast gene YDR497C) | level of expressed mRNA in the presence/in the absence of chemical substance (yeast gene YER015W) | The level of expressed mRNA in the presence of chemical substance/The level of expressed mRNA in the absence of chemical substance (yeast gene YFL057C) | The level of expressed mRNA in the presence of chemical substance/The level of expressed mRNA in the absence of chemical substance (yeast gene YJL219W)
1.4: The level of expressed mRNA in the presence of chemical substance/The level of expressed mRNA in the absence of chemical substance (yeast gene YBR183W) | The level of expressed mRNA in the presence of chemical substance/The level of expressed mRNA in the absence of chemical substance (yeast gene YGR037C) | The level of expressed mRNA in the presence of chemical substance/The level of expressed mRNA in the absence of chemical substance (yeast gene YHR176W) | level of expressed mRNA in the presence/in the absence of chemical substance (yeast gene YHR210C) | The level of expressed mRNA in the presence of chemical substance/The level of expressed mRNA in the absence of chemical substance (yeast gene YJL068C) | The level of expressed mRNA in the presence of chemical substance/The level of expressed mRNA in the absence of chemical substance (yeast gene YJL088W) | level of expressed mRNA in the presence/in the absence of chemical substance (yeast gene YJL167W)
1.8: level of expressed mRNA in the presence/in the absence of chemical substance (yeast gene YDR073W) | The level of expressed mRNA in the presence of chemical substance/The level of expressed mRNA in the absence of chemical substance (yeast gene YJL172W)
